Test results taken from patent US20250101436A1, “APTAMERS AND SMALL MOLECULE LIGANDS” (MeiraGTx UK II Limited, priority 2021, published 2025).

The substances below were run on luciferase gene expression in HEK 293 cells in response to Comp. 004 (assay: Screen of riboswitch constructs with 12C6-1 variant aptamers (libraries N1-N5) against Comp. 004, luciferase in HEK 293 cells). Conditions: library N5 variant aptamers (L5, X16-X21 randomized) of 12C6-1 in riboswitch constructs; in response to Comp. 004 treatment; HEK 293 cells.
Type: cell-based, human
Method in brief: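 Riboswitch constructs carrying 12C6-1 aptamer variants, randomized in J2-4, J2-3/J3-3a/J3a-2/P3, L3a, J4-5/J5-4/P4 or L5 regions (libraries N1-N5), cloned into an intron-exon-intron cassette driving luciferase. Screened in HEK 293 cells with 25 µM Comp. 004; read-out is fold induction of gene expression versus parent Luci-12C6-1.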
For “N5_2E11 (CTGGGGAGTCCT; chemistry not given here)”, the “Fold (induction of luciferase gene expression)” value (“Fold” below) was 1038.1 fold. For “N5_2F10 (CTGGGGAGTCCT; chemistry not given here)”, the “Fold” value was 1014.6 fold. With “N5_2F12 (CTGGGGAGTCCT; chemistry not given here)” the “Fold” value was 1100.0 fold. In the case of “N5_2G5 (CTGGGGAGTCCT; chemistry not given here)”, the “Fold” value is reported as 715.9 fold. For “N5_2G10 (CTGGGGAGTCCT; chemistry not given here)”, the “Fold” value was 1249.7 fold. “N5_3A2 (CTGGGGAGTCCT; chemistry not given here)” was tested, and the “Fold” value was 718.0 fold. With “N5_3A3 (CTGGGGAGTCCT; chemistry not given here)” the “Fold” value was 1066.3 fold. “N5_3C8 (CTGGGGAGTCCT; chemistry not given here)” was tested, and the “Fold” value was 835.1 fold. In the case of “N5_3C10 (CTGGGGAGTCCT; chemistry not given here)”, the “Fold” value is reported as 751.6 fold. With “N5_3D3 (CTGGGGAGTCCT; chemistry not given here)” the “Fold” value was 1222.7 fold. For “N5_3D8 (CTGGGGAGTCCT; chemistry not given here)”, the “Fold” value was 824.4 fold. In the case of “N5_3F9 (CTGGGGAGTCCT; chemistry not given here)”, the “Fold” value is reported as 909.7 fold. In the case of “N5_3F10 (CTGGGGAGTCCT; chemistry not given here)”, the “Fold” value is reported as 894.3 fold. In the case of “N5_3F11 (CTGGGGAGTCCT; chemistry not given here)”, the “Fold” value is reported as 1628.3 fold. In the case of “N5_3G12 (CTGGGGAGTCCT; chemistry not given here)”, the “Fold” value is reported as 756.5 fold. For “N5_4D7 (CTGGGGAGTCCT; chemistry not given here)”, the “Fold” value was 588.1 fold. For “N5_4D8 (CTGGGGAGTCCT; chemistry not given here)”, the “Fold” value was 565.6 fold. For “N5_4H7 (CTGGGGAGTCCT; chemistry not given here)”, the “Fold” value was 714.3 fold. In the case of “N5_5B6 (CTGGGGAGTCCT; chemistry not given here)”, the “Fold” value is reported as 1068.3 fold. With “N5_5B7 (CTGGGGAGTCCT; chemistry not given here)” the “Fold” value was 1317.2 fold. For “N5_5C4 (CTGGGGAGTCCT; chemistry not given here)”, the “Fold” value was 1235.2 fold. “N5_5D7 (CTGGGGAGTCCT; chemistry not given here)” was tested, and the “Fold” value was 769.4 fold. “N5_5D9 (CTGGGGAGTCCT; chemistry not given here)” was tested, and the “Fold” value was 712.5 fold. For “N5_5E4 (CTGGGGAGTCCT; chemistry not given here)”, the “Fold” value was 1116.0 fold. For “N5_6A3 (CTGGGGAGTCCT; chemistry not given here)”, the “Fold” value was 696.0 fold. For “N5_6A6 (CTGGGGAGTCCT; chemistry not given here)”, the “Fold” value was 1024.4 fold. For “N5_6A8 (CTGGGGAGTCCT; chemistry not given here)”, the “Fold” value was 1252.2 fold. In the case of “N5_6B4 (CTGGGGAGTCCT; chemistry not given here)”, the “Fold” value is reported as 1435.7 fold. In the case of “N5_6B6 (CTGGGGAGTCCT; chemistry not given here)”, the “Fold” value is reported as 659.7 fold. For “N5_6D12 (CTGGGGAGTCCT; chemistry not given here)”, the “Fold” value was 2318.1 fold. With “N5_6E1 (CTGGGGAGTCCT; chemistry not given here)” the “Fold” value was 725.2 fold. “N5_6E6 (CTGGGGAGTCCT; chemistry not given here)” was tested, and the “Fold” value was 1032.8 fold. “N5_6F4 (CTGGGGAGTCCT; chemistry not given here)” was tested, and the “Fold” value was 1226.6 fold. For “N5_6F5 (CTGGGGAGTCCT; chemistry not given here)”, the “Fold” value was 1665.4 fold. For “N5_6F6 (CTGGGGAGTCCT; chemistry not given here)”, the “Fold” value was 953.0 fold. In the case of “N5_6G6 (CTGGGGAGTCCT; chemistry not given here)”, the “Fold” value is reported as 1004.4 fold. In the case of “N5_6G10 (CTGGGGAGTCCT; chemistry not given here)”, the “Fold” value is reported as 1262.0 fold. “N5_6H10 (CTGGGGAGTCCT; chemistry not given here)” was tested, and the “Fold” value was 1466.1 fold. In the case of “N5_7A1 (CTGGGGAGTCCT; chemistry not given here)”, the “Fold” value is reported as 897.3 fold. “N5_7A4 (CTGGGGAGTCCT; chemistry not given here)” was tested, and the “Fold” value was 988.3 fold. For “N5_7A5 (CTGGGGAGTCCT; chemistry not given here)”, the “Fold” value was 785.5 fold. For “N5_7A6 (CTGGGGAGTCCT; chemistry not given here)”, the “Fold” value was 314.5 fold. In the case of “N5_7A7 (CTGGGGAGTCCT; chemistry not given here)”, the “Fold” value is reported as 1226.2 fold. “N5_7A9 (CTGGGGAGTCCT; chemistry not given here)” was tested, and the “Fold” value was 692.6 fold. With “N5_7A10 (CTGGGGAGTCCT; chemistry not given here)” the “Fold” value was 1108.5 fold. With “N5_7A11 (CTGGGGAGTCCT; chemistry not given here)” the “Fold” value was 941.2 fold. “N5_7B1 (CTGGGGAGTCCT; chemistry not given here)” was tested, and the “Fold” value was 2062.3 fold. “N5_7B3 (CTGGGGAGTCCT; chemistry not given here)” was tested, and the “Fold” value was 756.3 fold. With “N5_7B5 (CTGGGGAGTCCT; chemistry not given here)” the “Fold” value was 779.9 fold. “N5_7B6 (CTGGGGAGTCCT; chemistry not given here)” was tested, and the “Fold” value was 875.4 fold. With “N5_7B7 (CTGGGGAGTCCT; chemistry not given here)” the “Fold” value was 1046.3 fold. With “N5_7B8 (CTGGGGAGTCCT; chemistry not given here)” the “Fold” value was 693.7 fold. “N5_7B10 (CTGGGGAGTCCT; chemistry not given here)” was tested, and the “Fold” value was 1361.5 fold. For “N5_7B12 (CTGGGGAGTCCT; chemistry not given here)”, the “Fold” value was 908.4 fold. In the case of “N5_7C1 (CTGGGGAGTCCT; chemistry not given here)”, the “Fold” value is reported as 87.5 fold. For “N5_7C2 (DNA CTGGGGAGTCCT; chemistry not given here)”, the “Fold” value was 627.0 fold. In the case of “N5_7C3 (DNA CTGGGGAGTCCT; chemistry not given here)”, the “Fold” value is reported as 1258.4 fold. With “N5_7C4 (DNA CTGGGGAGTCCT; chemistry not given here)” the “Fold” value was 1363.2 fold. For “N5_7C7 (DNA CTGGGGAGTCCT; chemistry not given here)”, the “Fold” value was 489.1 fold. For “N5_7C8 (DNA CTGGGGAGTCCT; chemistry not given here)”, the “Fold” value was 1313.8 fold. In the case of “N5_7C10 (CTGGGGAGTCCT; chemistry not given here)”, the “Fold” value is reported as 1090.7 fold. With “N5_7C11 (CTGGGGAGTCCT; chemistry not given here)” the “Fold” value was 459.9 fold. For “N5_7C12 (CTGGGGAGTCCT; chemistry not given here)”, the “Fold” value was 628.9 fold. For “N5_7D1 (DNA CTGGGGAGTCCT; chemistry not given here)”, the “Fold” value was 909.3 fold. For “N5_7D2 (DNA CTGGGGAGTCCT; chemistry not given here)”, the “Fold” value was 1114.3 fold. In the case of “N5_7D3 (DNA CTGGGGAGTCCT; chemistry not given here)”, the “Fold” value is reported as 1075.7 fold. “N5_7D4 (DNA CTGGGGAGTCCT; chemistry not given here)” was tested, and the “Fold” value was 1144.9 fold. With “N5_7D5 (DNA CTGGGGAGTCCT; chemistry not given here)” the “Fold” value was 1182.3 fold. In the case of “N5_7D6 (DNA CTGGGGAGTCCT; chemistry not given here)”, the “Fold” value is reported as 1210.5 fold. With “N5_7D7 (DNA CTGGGGAGTCCT; chemistry not given here)” the “Fold” value was 105.5 fold. “N5_7D11 (DNA CTGGGGAGTCCT; chemistry not given here)” was tested, and the “Fold” value was 759.2 fold. For “N5_7E1 (DNA CTGGGGAGTCCT; chemistry not given here)”, the “Fold” value was 1733.0 fold. With “N5_7E2 (DNA CTGGGGAGTCCT; chemistry not given here)” the “Fold” value was 1234.5 fold. In the case of “N5_7E5 (DNA CTGGGGAGTCCT; chemistry not given here)”, the “Fold” value is reported as 867.4 fold. “N5_7E6 (DNA CTGGGGAGTCCT; chemistry not given here)” was tested, and the “Fold” value was 1153.2 fold. In the case of “N5_7E7 (DNA CTGGGGAGTCCT; chemistry not given here)”, the “Fold” value is reported as 870.2 fold. “N5_7E8 (DNA CTGGGGAGTCCT; chemistry not given here)” was tested, and the “Fold” value was 879.9 fold. In the case of “N5_7E9 (DNA CTGGGGAGTCCT; chemistry not given here)”, the “Fold” value is reported as 955.3 fold. For “N5_7E11 (DNA CTGGGGAGTCCT; chemistry not given here)”, the “Fold” value was 732.1 fold. “N5_7E12 (DNA CTGGGGAGTCCT; chemistry not given here)” was tested, and the “Fold” value was 933.3 fold.
